Assay results taken from ChEMBL document CHEMBL5463728, “Data for DCP probe BAY-6096” (2023).

Assays:
[1] = biological target: Alpha-2A adrenergic receptor (Homo sapiens) (UniProt P08913); details: Compound concentration 10.0 uM
[2] = biological target: 5-hydroxytryptamine receptor 2A (Homo sapiens) (UniProt P28223); details: Compound concentration 10.0 uM
[3] = biological target: 5-hydroxytryptamine receptor 1D (Homo sapiens) (UniProt P28221); details: Compound concentration 10.0 uM
[4] = biological target: Alpha-2C adrenergic receptor (Homo sapiens) (UniProt P18825); details: Compound concentration 10.0 uM
[5] = biological target: T1, Muscarinic acetylcholine receptor M2 (Homo sapiens) (UniProt P08172); details: Compound concentration 10.0 uM
T1 sequence (whole entry): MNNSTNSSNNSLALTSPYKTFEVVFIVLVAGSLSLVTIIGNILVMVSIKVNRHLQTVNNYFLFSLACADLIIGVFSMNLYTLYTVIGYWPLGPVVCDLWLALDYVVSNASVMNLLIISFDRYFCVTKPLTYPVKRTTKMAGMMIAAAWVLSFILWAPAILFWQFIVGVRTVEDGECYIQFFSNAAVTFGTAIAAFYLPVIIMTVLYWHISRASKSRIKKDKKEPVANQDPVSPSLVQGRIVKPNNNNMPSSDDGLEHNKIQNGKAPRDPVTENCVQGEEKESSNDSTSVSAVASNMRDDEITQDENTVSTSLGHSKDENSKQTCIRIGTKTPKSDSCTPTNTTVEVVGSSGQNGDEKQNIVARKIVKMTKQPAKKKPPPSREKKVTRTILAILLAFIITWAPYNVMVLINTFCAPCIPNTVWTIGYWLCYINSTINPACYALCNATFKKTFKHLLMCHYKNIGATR

[6] = biological target: Alpha-2C adrenergic receptor (Homo sapiens, UniProt P18825); assay: Adrenoceptor reporter cell assay (ADRA2C); format: functional
[7] = biological target: 5-hydroxytryptamine receptor 3A (Homo sapiens) (UniProt P46098); details: Compound concentration 10.0 uM
[8] = biological target: 5-hydroxytryptamine receptor 1B (Homo sapiens) (UniProt P28222); details: Compound concentration 10.0 uM
[9] = biological target: Mu-type opioid receptor (Homo sapiens) (UniProt P35372); details: Compound concentration 10.0 uM
[10] = biological target: 5-hydroxytryptamine receptor 5A (Homo sapiens) (UniProt P47898); details: Compound concentration 10.0 uM
[11] = biological target: 5-hydroxytryptamine receptor 2B (Homo sapiens) (UniProt P41595); details: Compound concentration 10.0 uM
[12] = biological target: Beta-1 adrenergic receptor (Homo sapiens, UniProt P08588); details: Compound concentration 10.0 uM
[13] = biological target: Alpha-1A adrenergic receptor (Homo sapiens, UniProt P35348); assay: Adrenoceptor reporter cell assay (ADRA1A); format: functional
[14] = biological target: Sodium-dependent noradrenaline transporter (Homo sapiens) (UniProt P23975); details: Compound concentration 10.0 uM
[15] = biological target: T2, 5-hydroxytryptamine receptor 1A (Homo sapiens) (UniProt P08908); details: Compound concentration 10.0 uM
T2 sequence (whole entry): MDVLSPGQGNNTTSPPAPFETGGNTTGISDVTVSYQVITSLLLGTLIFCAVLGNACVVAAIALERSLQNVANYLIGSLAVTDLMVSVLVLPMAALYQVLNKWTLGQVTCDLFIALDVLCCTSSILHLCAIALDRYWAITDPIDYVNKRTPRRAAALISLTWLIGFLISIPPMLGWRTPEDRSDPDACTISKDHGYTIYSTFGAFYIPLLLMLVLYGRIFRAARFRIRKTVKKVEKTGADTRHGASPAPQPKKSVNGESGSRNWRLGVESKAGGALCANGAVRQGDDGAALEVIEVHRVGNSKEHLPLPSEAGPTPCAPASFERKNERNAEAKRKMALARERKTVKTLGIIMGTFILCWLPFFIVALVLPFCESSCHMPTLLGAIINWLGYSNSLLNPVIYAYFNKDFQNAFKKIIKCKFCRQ

[16] = biological target: D(2) dopamine receptor (Homo sapiens, UniProt P14416); assay: Bayer Inhouse […] panel (DRD2)
[17] = biological target: 5-hydroxytryptamine receptor 7 (Homo sapiens) (UniProt P34969); details: Compound concentration 10.0 uM
[18] = biological target: Histamine H1 receptor (Homo sapiens) (UniProt P35367); details: Compound concentration 10.0 uM
[19] = biological target: Sodium-dependent serotonin transporter (Homo sapiens) (UniProt P31645); details: Compound concentration 10.0 uM
[20] = biological target: Alpha-1A adrenergic receptor (Homo sapiens) (UniProt P35348); details: Compound concentration 10.0 uM
[21] = biological target: Histamine H2 receptor (Homo sapiens) (UniProt P25021); details: Compound concentration 10.0 uM
[22] = biological target: T3, Muscarinic acetylcholine receptor M4 (Homo sapiens) (UniProt P08173); details: Compound concentration 10.0 uM
T3 sequence (whole entry): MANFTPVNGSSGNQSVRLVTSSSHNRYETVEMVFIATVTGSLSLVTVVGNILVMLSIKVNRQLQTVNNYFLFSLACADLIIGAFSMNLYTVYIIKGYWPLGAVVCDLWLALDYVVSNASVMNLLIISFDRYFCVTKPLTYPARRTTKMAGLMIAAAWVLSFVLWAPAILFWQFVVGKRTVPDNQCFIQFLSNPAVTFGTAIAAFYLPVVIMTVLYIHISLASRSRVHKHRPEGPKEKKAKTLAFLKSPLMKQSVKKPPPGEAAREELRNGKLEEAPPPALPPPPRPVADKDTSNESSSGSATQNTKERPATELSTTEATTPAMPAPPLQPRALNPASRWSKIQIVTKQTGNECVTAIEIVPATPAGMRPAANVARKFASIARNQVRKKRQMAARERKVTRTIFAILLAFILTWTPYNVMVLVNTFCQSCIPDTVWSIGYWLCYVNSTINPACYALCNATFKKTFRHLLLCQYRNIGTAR

[23] = biological target: Histamine H4 receptor (Homo sapiens) (UniProt Q9H3N8); details: Compound concentration 10.0 uM
[24] = biological target: Delta-type opioid receptor (Homo sapiens) (UniProt P41143); details: Compound concentration 10.0 uM
[25] = biological target: Muscarinic acetylcholine receptor M3 (Homo sapiens) (UniProt P20309); details: Compound concentration 10.0 uM
[26] = biological target: Sigma intracellular receptor 2 (Homo sapiens) (UniProt Q5BJF2); details: Compound concentration 10.0 uM
[27] = biological target: Alpha-2A adrenergic receptor (Homo sapiens, UniProt P08913); assay: Adrenoceptor reporter cell assay (ADRA2A); format: functional
[28] = biological target: D(3) dopamine receptor (Homo sapiens) (UniProt P35462); details: Compound concentration 10.0 uM
[29] = biological target: Sigma non-opioid intracellular receptor 1 (Homo sapiens) (UniProt Q99720); details: Compound concentration 10.0 uM
Sigma non-opioid intracellular receptor 1 (Homo sapiens), sequence (Q99720 whole entry): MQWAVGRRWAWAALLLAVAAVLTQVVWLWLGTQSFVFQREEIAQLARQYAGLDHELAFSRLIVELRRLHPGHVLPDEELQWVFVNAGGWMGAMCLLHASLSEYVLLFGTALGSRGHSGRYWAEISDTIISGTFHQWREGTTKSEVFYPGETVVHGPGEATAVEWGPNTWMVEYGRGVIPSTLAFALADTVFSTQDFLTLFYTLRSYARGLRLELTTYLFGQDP

5-hydroxytryptamine receptor 2B (Homo sapiens), sequence (P41595 whole entry): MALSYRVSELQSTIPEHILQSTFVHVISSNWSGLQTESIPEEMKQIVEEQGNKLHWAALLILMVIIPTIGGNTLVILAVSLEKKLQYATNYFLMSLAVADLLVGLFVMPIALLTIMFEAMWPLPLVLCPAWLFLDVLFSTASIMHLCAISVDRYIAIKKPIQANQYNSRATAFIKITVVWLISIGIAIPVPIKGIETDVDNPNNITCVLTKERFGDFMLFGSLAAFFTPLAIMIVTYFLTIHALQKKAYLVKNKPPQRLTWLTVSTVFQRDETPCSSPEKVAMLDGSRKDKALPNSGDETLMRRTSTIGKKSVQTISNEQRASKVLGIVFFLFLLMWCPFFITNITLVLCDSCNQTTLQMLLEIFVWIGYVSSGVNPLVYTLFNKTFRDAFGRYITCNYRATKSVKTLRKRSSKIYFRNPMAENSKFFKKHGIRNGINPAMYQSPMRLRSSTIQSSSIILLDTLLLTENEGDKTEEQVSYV
5-hydroxytryptamine receptor 2A (Homo sapiens), sequence (P28223 whole entry): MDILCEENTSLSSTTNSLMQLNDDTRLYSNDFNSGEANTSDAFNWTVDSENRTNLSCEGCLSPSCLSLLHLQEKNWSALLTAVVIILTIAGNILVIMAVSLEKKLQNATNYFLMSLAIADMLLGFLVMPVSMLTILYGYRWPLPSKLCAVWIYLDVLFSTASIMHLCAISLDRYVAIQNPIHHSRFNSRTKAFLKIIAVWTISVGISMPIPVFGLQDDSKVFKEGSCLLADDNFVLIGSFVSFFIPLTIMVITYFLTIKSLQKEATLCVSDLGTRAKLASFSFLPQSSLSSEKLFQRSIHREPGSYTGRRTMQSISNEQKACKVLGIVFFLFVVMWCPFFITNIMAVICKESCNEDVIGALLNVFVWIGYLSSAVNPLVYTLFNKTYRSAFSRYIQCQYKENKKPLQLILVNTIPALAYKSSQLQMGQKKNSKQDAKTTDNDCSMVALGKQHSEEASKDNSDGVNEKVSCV
Alpha-2A adrenergic receptor (Homo sapiens), sequence (P08913 whole entry): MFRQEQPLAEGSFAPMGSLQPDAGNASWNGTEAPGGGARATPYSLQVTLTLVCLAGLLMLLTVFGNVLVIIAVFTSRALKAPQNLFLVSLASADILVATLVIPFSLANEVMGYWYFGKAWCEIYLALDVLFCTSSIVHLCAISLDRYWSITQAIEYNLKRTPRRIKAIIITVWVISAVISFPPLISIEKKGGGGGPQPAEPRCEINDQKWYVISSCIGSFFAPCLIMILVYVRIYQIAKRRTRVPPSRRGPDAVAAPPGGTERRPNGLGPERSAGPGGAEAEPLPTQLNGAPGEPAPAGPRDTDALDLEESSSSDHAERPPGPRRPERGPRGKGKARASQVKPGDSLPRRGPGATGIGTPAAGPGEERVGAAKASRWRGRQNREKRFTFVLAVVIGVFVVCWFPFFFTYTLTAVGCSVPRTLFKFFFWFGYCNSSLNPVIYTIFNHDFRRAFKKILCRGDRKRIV
Sodium-dependent noradrenaline transporter (Homo sapiens), sequence (P23975 whole entry): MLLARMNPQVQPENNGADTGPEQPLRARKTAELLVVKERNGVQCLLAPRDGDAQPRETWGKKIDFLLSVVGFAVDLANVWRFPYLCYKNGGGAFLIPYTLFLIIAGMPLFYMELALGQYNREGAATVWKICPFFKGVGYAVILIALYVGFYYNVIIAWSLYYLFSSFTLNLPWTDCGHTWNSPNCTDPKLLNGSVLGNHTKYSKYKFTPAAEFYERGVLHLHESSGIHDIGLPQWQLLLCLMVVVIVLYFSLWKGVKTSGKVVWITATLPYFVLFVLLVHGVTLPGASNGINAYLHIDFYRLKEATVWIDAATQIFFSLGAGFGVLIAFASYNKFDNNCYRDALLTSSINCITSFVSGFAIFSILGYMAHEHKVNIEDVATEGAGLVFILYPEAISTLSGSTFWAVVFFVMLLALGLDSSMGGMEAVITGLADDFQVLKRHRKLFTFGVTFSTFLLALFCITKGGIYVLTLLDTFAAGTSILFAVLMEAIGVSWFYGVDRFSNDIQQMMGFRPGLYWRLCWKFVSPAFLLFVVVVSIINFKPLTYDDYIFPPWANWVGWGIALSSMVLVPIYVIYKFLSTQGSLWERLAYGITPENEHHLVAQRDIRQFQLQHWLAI
D(3) dopamine receptor (Homo sapiens), sequence (P35462 whole entry): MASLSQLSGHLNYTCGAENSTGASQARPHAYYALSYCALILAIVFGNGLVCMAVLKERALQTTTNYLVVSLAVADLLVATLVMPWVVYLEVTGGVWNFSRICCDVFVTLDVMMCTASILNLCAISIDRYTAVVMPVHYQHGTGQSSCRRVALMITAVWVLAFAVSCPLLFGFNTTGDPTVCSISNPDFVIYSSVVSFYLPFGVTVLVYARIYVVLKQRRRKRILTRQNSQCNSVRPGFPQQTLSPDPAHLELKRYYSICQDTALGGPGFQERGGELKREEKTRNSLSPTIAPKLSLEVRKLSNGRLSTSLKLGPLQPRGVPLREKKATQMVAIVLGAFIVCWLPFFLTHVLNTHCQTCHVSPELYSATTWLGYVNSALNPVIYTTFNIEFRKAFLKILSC
5-hydroxytryptamine receptor 5A (Homo sapiens), sequence (P47898 whole entry): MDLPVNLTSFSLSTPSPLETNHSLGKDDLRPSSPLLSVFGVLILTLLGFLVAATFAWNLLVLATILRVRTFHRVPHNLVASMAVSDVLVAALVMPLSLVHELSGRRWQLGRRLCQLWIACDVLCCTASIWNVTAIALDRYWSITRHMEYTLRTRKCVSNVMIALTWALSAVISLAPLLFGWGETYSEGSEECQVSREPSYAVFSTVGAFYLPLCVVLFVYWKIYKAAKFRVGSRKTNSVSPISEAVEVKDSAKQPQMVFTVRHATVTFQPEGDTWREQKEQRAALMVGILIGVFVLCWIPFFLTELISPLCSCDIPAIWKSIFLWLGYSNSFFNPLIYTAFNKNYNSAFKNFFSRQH
5-hydroxytryptamine receptor 1D (Homo sapiens), sequence (P28221 whole entry): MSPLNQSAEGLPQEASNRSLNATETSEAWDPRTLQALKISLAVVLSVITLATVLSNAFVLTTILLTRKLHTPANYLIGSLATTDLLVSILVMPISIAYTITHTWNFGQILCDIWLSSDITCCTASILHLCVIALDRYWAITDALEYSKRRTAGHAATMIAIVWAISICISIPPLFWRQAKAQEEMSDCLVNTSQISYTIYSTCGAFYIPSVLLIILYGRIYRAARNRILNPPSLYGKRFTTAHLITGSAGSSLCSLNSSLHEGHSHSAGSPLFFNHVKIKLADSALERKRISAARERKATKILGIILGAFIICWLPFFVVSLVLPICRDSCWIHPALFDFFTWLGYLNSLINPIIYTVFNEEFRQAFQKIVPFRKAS
Histamine H1 receptor (Homo sapiens), sequence (P35367 whole entry): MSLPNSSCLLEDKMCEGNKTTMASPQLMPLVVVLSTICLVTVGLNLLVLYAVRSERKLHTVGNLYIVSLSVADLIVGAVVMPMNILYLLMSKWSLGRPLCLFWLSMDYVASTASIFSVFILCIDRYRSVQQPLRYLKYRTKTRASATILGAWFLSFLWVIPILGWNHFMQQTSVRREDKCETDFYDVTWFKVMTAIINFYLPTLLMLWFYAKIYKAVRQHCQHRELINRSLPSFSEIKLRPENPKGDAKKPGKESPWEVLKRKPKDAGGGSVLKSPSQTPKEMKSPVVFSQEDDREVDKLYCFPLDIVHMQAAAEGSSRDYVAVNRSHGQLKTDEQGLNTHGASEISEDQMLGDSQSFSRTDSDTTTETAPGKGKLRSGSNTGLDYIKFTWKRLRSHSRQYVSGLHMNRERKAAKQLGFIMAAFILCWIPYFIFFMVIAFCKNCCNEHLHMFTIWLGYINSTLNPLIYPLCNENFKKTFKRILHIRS
Alpha-2C adrenergic receptor (Homo sapiens), sequence (P18825 whole entry): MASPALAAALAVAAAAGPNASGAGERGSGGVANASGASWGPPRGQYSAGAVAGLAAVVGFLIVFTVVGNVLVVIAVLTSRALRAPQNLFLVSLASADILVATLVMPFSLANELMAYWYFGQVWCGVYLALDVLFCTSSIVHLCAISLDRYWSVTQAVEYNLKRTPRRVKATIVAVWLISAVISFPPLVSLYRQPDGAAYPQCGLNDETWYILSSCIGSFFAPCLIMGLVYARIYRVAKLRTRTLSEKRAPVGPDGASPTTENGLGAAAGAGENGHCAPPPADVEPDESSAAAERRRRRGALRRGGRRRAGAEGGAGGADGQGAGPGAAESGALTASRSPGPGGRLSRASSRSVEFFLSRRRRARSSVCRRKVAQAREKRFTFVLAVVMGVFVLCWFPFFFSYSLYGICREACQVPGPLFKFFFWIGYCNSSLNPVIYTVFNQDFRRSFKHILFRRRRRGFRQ
5-hydroxytryptamine receptor 1B (Homo sapiens), sequence (P28222 whole entry): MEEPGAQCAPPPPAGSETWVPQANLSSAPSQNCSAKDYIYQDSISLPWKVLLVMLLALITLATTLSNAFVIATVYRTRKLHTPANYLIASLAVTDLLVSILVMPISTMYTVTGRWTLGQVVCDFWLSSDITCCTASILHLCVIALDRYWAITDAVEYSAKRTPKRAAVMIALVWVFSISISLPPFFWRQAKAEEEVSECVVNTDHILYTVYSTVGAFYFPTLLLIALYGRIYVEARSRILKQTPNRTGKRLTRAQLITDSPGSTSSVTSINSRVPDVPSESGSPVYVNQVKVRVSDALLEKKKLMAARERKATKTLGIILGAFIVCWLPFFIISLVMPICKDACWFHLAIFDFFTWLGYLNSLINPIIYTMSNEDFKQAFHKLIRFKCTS
Sigma intracellular receptor 2 (Homo sapiens), sequence (Q5BJF2 whole entry): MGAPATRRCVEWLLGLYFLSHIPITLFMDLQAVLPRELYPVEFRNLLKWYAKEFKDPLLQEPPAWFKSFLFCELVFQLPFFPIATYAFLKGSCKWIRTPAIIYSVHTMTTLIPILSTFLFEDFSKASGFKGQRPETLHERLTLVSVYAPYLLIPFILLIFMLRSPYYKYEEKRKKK

SMILES | inhibition [1] [%] | inhibition [2] [%] | inhibition [3] [%] | inhibition [4] [%] | inhibition [5] [%] | IC50 [6] | inhibition [7] [%] | inhibition [8] [%] | inhibition [9] [%] | inhibition [10] [%] | inhibition [11] [%] | inhibition [12] [%] | IC50 [13] | inhibition [14] [%] | inhibition [15] [%] | IC50 [16] | inhibition [17] [%] | inhibition [18] [%] | inhibition [19] [%] | inhibition [20] [%] | further results
CNc1cc[n+](CCNC(=O)c2ccn3c(-c4c(C)noc4C)cnc3c2)cc1 | 49.5 | 17 | 19.5 | 41.3 | 3.34 | > 11.8 µM (not active) | 6.7 | 9.81 | 6.53 | 3.22 | 4.13 | 2.87 | 5.52 µM (not active) | -2.68 | 33.4 | 1.4 µM (not active) | 5.99 | 1.15 | 7.14 | 31.1 | inhibition [21]: 5.19%; inhibition [22]: -6.15%; inhibition [23]: 3.02%; inhibition [24]: 20.1%; inhibition [25]: 0.75%; inhibition [26]: 27.5%; IC50 [27]: 10 µM (not active); inhibition [28]: 8.88%; inhibition [29]: 35.5%
Cc1noc(C)c1-c1cnc2cc(C(=O)NCCC[n+]3ccc(N(C)C)cc3)ccn12 | 16.1 | -4.21 | 24.2 | 18.3 | 7.75 | > 10 µM (not active) | 4.99 | -0.88 | 18.9 | -2.29 | 10.3 | 3.84 | > 10 µM (not active) | 1.75 | 81.7 | > 20 µM (not active) | 3.4 | 2.11 | 1.28 | 9.17 | inhibition [21]: 9.52%; inhibition [22]: 12.5%; inhibition [23]: 15.9%; inhibition [24]: -5.36%; inhibition [25]: 18%; inhibition [26]: 14.1%; IC50 [27]: > 10 µM (not active); inhibition [28]: -6.53%; inhibition [29]: 25.1%
